# Measured values taken from US20250145598A1, “ACID CERAMIDASE INHIBITORS AND USES THEREOF” (The Regents of the University of California, priority 2021, published 2025).
# Target: T1, Acid ceramidase (Homo sapiens, UniProt Q13510)
# T1 sequence (Q13510 22-395): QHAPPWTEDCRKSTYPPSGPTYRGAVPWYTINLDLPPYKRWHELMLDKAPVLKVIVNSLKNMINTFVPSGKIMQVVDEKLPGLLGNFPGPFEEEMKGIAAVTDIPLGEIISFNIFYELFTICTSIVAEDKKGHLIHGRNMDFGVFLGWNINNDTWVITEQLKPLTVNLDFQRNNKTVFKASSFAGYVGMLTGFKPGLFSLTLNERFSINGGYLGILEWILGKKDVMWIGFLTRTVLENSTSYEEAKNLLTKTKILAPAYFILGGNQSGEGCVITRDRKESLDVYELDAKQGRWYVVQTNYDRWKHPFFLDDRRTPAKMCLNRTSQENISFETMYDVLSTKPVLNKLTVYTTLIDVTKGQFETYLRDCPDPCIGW
# Experiment: Acid ceramidase assay (AC in vitro IC50)
# Format: biochemical
# Settings: Acid ceramidase assay data of example compounds
row,IC50 [nM],Structure (SMILES)
1,< 300,"O=C(Nc1ccc(COc2ccc(-c3cn(C(=O)NCCCOc4ccccc4)cn3)cc2)cc1)C1CC1 [AC2020601-0328, 4-(4-((4-(cyclopropanecarboxamido)benzyl)oxy)phenyl)-N-(3-phenoxypropyl)-1H-imidazole-1-carboxamide]"
2,< 300,"CS(=O)(=O)c1ccc(COc2ccc(-c3cn(C(=O)NCCCOc4ccc(C#N)cc4)cn3)cc2)cc1 [AC2020601-0373, N-(3-(4-cyanophenoxy)propyl)-4-(4-(4-(methylsulfonyl)benzyloxy)phenyl)-1H-imidazole-1-carboxamide]"
3,> 3000,"CC(C)N1CC(CNC(=O)n2cnc(-c3ccc(OCc4ccc(S(C)(=O)=O)cc4)cc3)c2)C1 [AC2020601-0379, N -((1-isopropylazetidin-3-yl)methyl)-4-(4-((4-(methylsulfonyl)benzyl)oxy)phenyl)-1H-imidazole-1-carboxamide]"
4,< 300,"CCS(=O)(=O)c1ccc(COc2ccc(-c3cn(C(=O)NCC4CCN(c5ccccc5)C4)cn3)cc2)nn1 (centres unmarked) [AC2020601-0482, 4-(4-((6-(ethylsulfonyl)pyridazin-3-yl)methoxy)phenyl)-N-((1-phenylpyrrolidin-3-yl)methyl)-1H-imidazole-1-carboxamide]"
5,< 300,"C[C@H](Oc1ccc(-c2cn(C(=O)NCCCOc3ccccc3)cn2)cc1)c1ccc(S(C)(=O)=O)cc1 (single isomer, unassigned) [AC2020601-0348]"
6,< 300,"CS(=O)(=O)c1ccc(COc2ccc(-c3cn(C(=O)NC[C@H]4CCN(c5ccccc5)C4)cn3)cc2)cc1 (single isomer, unassigned) [AC2020601-0384b]"
7,< 300,"Cn1ncc(COc2ccc(-c3cn(C(=O)NCC4CCN(c5ccccc5)C4)cn3)cc2)n1 (centres unmarked) [AC2020601-0488, 4-(4-((2-methyl-2H-1,2,3-triazol-4-yl)methoxy)phenyl)-N-((1-phenylpyrrolidin-3-yl)methyl)-1H-imidazole-1-carboxamide]"
8,< 300,"CCCCCCNC(=O)n1cnc(-c2ccc(OCc3ccc(S(C)(=O)=O)cc3)cc2)c1 [AC2020601-0296, N-hexyl-4-(4-((4-(methylsulfonyl)benzyl)oxy)phenyl)-1H-imidazole-1-carboxamide]"
9,< 300,"C[C@@H](Oc1ccc(-c2cn(C(=O)NCCCOc3ccccc3)cn2)cc1)c1ccc(S(C)(=O)=O)cc1 (single isomer, unassigned) [AC2020601-0349]"
10,< 300,"O=C(NCC1CN(c2ccccc2)C1)n1cnc(-c2ccc(OCc3cccc(N4CCOCC4)c3)cc2)c1 [AC2020601-0382, 4-(4-(3-morpholinobenzyloxy)phenyl)-N-((1-phenylazetidin-3-yl)methyl)-1H-imidazole-1-carboxamide]"
11,< 300,"O=C(NCCCCc1ccccc1)n1cnc(-c2ccc(OCc3cccnc3)cc2)c1 [AC2020601-0276, N-(4-phenylbutyl)-4-(4-(pyridin-3-ylmethoxy)phenyl)-1H-imidazole-1-carboxamide]"
12,< 300,"CS(=O)(=O)c1ccc(COc2ccccc2-c2cn(C(=O)NCC3CN(c4ccccc4)C3)cn2)cc1 [AC2020601-0456, 4-(2-(4-(methylsulfonyl)benzyloxy)phenyl)-N-((1-phenylazetidin-3-yl)methyl)-1H-imidazole-1-carboxamide]"
13,< 300,"CS(=O)(=O)c1ccc(C(CO)Oc2ccc(-c3cn(C(=O)NCC4CCN(c5ccccc5)C4)cn3)cc2)cc1 (centres unmarked) [AC2020601-0428, 4-(4-(2-hydroxy-1-(4-(methylsulfonyl)phenyl)ethoxy)phenyl)-N-((1-phenylpyrrolidin-3-yl)methyl)-1H-imidazole-1-carboxamide]"
14,< 300,"CS(=O)(=O)Nc1ccc(COc2ccc(-c3cn(C(=O)NCCCOc4ccccc4)cn3)cc2)cc1 [AC2020601-0327, 4-(4-((4-(methylsulfonamido)benzyl)oxy)phenyl)-N-(3-phenoxypropyl)-1H-imidazole-1-carboxamide]"
15,< 300,"CS(=O)(=O)c1ccc(COc2ccc(-c3cn(C(=O)NCC4CCN(c5ccc(F)cn5)C4)cn3)cc2)cc1 (centres unmarked) [AC2020601-0497, N-((1-(5-fluoropyridin-2-yl)pyrrolidin-3-yl)methyl)-4-(4-((4-(methylsulfonyl)benzyl)oxy)phenyl)-1H-imidazole-1-carboxamide]"
16,> 3000,"CS(=O)(=O)Nc1ccc(COc2ccc(-c3cn(C(=O)NCC4CN(c5ccccc5)C4)cn3)cc2)cc1 [AC2020601-0380, 4-(4-((4-(methylsulfonamido)benzyl)oxy)phenyl)-N-((1-phenylazetidin-3-yl)methyl)-1H-imidazole-1-carboxamide]"
17,< 300,"O=C(NCCCCc1ccccc1)n1cnc(-c2ccc(OCc3cccc(N4CCOCC4)c3)cc2)c1 [AC2020601-0245, 4-(4-((3-morpholinobenzyl)oxy)phenyl)-N-(4-phenylbutyl)-1H-imidazole-1-carboxamide]"
18,< 300,"CN1CCN(c2cccc(COc3ccc(-c4cn(C(=O)NCC5CCN(c6ccccc6)C5)cn4)cc3)c2)CC1=O (centres unmarked) [AC2020601-0434, 4-(4-(3-(4-methyl-3-oxopiperazin-1-yl)benzyloxy)phenyl)-N-((1-phenylpyrrolidin-3-yl)methyl)-1H-imidazole-1-carboxamide]"
19,< 300,"CCCCCCNC(=O)n1cnc(-c2ccccc2OCc2ccccc2)c1 [AC2020601-0199, 4-(2-(benzyloxy)phenyl)-N-hexyl-1H-imidazole-1-carboxamide]"
20,> 3000,"CS(=O)(=O)c1ccc(COc2ccc(-c3cn(C(=O)NCC4CN(Cc5ccccc5)C4)cn3)cc2)cc1 [AC2020601-0377, N-((1-benzylazetidin-3-yl)methyl)-4-(4-((4-(methylsulfonyl)benzyl)oxy)phenyl)-1H-imidazole-1-carboxamide]"
21,< 300,"CS(=O)(=O)c1ccc(C(=O)Oc2ccc(-c3cn(C(=O)NCC4CCN(c5ccccc5)C4)cn3)cc2)cc1 (centres unmarked) [AC2020601-0501, 4-(1-((1-phenylpyrrolidin-3-yl)methylcarbamoyl)-1H-imidazol-4-yl)phenyl 4-(methylsulfonyl)benzoate]"
22,< 300,"CS(=O)(=O)c1ccc(COc2ccc(-c3cn(C(=O)NCCCOc4ccccc4)cn3)cc2)cc1 [AC2020601-0294, 4-(4-((4-(methylsulfonyl)benzyl)oxy)phenyl)-N-(3-phenoxypropyl)-1H-imidazole-1-carboxamide]"
23,< 300,"O=C(NCC1CC1)n1cnc(-c2ccc(OCc3ccc(F)cc3)cc2)c1 [AC2020601-0206, N-(cyclopropylmethyl)-4-(4-(4-fluorobenzyloxy)Vphenyl)-1H-imid azole-1-carboxamide]"
24,< 300,"O=C(Nc1ccc(COc2ccc(-c3cn(C(=O)NCC4CN(c5ccccc5)C4)cn3)cc2)cc1)C1COC1 [AC2020601-0401, 4-(4-((4-(oxetane-3-carboxamido)benzyl)oxy)phenyl)-N-((1-phenylazetidin-3-yl)methyl)-1H-imidazole-1-carboxamide]"
25,< 300,"O=C(NCCCOc1ccccc1)n1cnc(-c2ccc(OCc3ccc(S(=O)(=O)N4CCOCC4)cc3)cc2)c1 [AC2020601-0347, 4-(4-((4-(morpholinosulfonyl)benzyl)oxy)phenyl)-N-(3-phenoxypropyl)-1H-imidazole-1-carboxamide]"
26,> 3000,"CS(=O)(=O)c1ccc(COc2ccc(-c3cn(C(=O)NCCN4Cc5ccccc5C4)cn3)cc2)cc1 [AC2020601-0402, N-(2-(isoindolin-2-yl)ethyl)-4-(4-(4-(methylsulfonyl)benzyloxy)phenyl)-1H-imidazole-1-carboxamide]"
